Laboratory results: ChEMBL document CHEMBL3124856, “Design, synthesis, and pharmacological evaluation of a novel series of pyridopyrazine-1,6-dione γ-secretase modulators” (J Med Chem, 2014)
In brackets after ≈: the same amount, converted by molar mass. One block for each compound: values may come before it. Activity calls are given as the source filed them. No cut-off for these calls is given here.

Columns and labels:
[1] = Apparent intrinsic clearance in rat liver microsomes; assay type: ADME; settings: read-out: CLH(app)
[2] = Apparent intrinsic clearance in human liver microsomes; assay type: ADME; settings: read-out: CLH(app)
[3] = Apparent intrinsic clearance in human hepatocytes; assay type: ADME, cell-based, Hepatocyte; settings: read-out: CLH(app)
[4] = molecular target: Gamma-secretase; assay: Modulation of gamma-secretase (unknown origin) expressed in CHO cells overexpressing human wild type APP assessed as reduction of amyloid beta 42 level after 24 hrs by ELISA; assay type: cell-based
[5] = system: MDR1 (human); assay: Efflux ratio of permeability in MDCK cells expressing human MDR1; assay type: ADME, cell-based, Canis lupus familiaris; settings: dog
[6] = molecular target: Gamma-secretase; assay: Inhibition of gamma-secretase in human HeLa cells assessed as reduction of amyloid beta 42 level preincubated for 30 mins measured after 1.5 hrs by Western blotting analysis; assay type: cell-based
[7] = molecular target: T1, Gamma-secretase (Homo sapiens) (UniProt Q96BI3+Q9NZ42+Q8WW43+P49768+Q92542+P49810); assay: Binding affinity to gamma-secretase in human HeLa cells assessed as labeling of PS1-NTF at 5 uM by Western blot analysis; assay type: cell-based
[8] = molecular target: T1, Gamma-secretase (Homo sapiens); assay: Binding affinity to gamma-secretase in human HeLa cells assessed as labeling of PS1-NTF at 5 uM by Western blot analysis in presence of GSI-L458; assay type: cell-based
[9] = molecular target: T1, Gamma-secretase (Homo sapiens); assay: Binding affinity to gamma-secretase in human HeLa cells assessed as labeling of PS1-NTF at 5 uM by Western blot analysis in presence of 2-[2-(7-Fluoronaphthalen-1-yloxy)ethyl]-7-(4-methyl-1H-imidazol-1-yl)-3,4-dihydro-1H-pyrido[1,2-a]pyrazine-1,6(2H)-dione; assay type: cell-based
[10] = molecular target: T1, Gamma-secretase (Homo sapiens); assay: Binding affinity to gamma-secretase in human HeLa cells assessed as labeling of PS1-NTF at 5 uM by Western blot analysis in presence of (S)-1-(1-(4-fluorophenyl)ethyl)-3-(3-methoxy-4-(4-methyl-1H-imidazol-1-yl)benzylidene)piperidin-2-one; assay type: cell-based
[11] = Clearance in rat at 1 mg/kg, iv; assay type: ADME, organism-based; parameters: dose 1 mg/kg, route intravenous; settings: in vivo
[12] = molecular target: Cytochrome P450 2D6 (Homo sapiens, UniProt P10635); assay: Inhibition of CYP2D6 (unknown origin); assay type: ADME
[13] = Passive apparent permeability from apical to basolateral side in RRCK cells; assay type: ADME, cell-based, Canis lupus familiaris, MDCKII-LE; settings: dog, MDCK
[14] = Half life in rat at 1 mg/kg, iv; assay type: ADME, organism-based; parameters: dose 1 mg/kg, route intravenous; settings: in vivo
[15] = Ratio of unbound drug level in brain to plasma in rat; assay type: ADME
[16] = Aqueous kinetic solubility of the compound at pH 6.5; assay type: physicochemical; settings: read-out: Kinetic_solubility
[17] = Volume of distribution at steady state in rat at 1 mg/kg, iv; assay type: ADME, organism-based; parameters: dose 1 mg/kg, route intravenous; settings: in vivo, read-out: Vdss
[18] = Ratio of drug uptake in brain to plasma in rat at 5 mg/kg, po after 1 hr; assay type: ADME, organism-based; parameters: dose 5 mg/kg, route oral; settings: read-out: BPR
[19] = molecular target: Cytochrome P450 3A4 (Homo sapiens, UniProt P08684); assay: Inhibition of CYP3A4 (unknown origin); assay type: ADME
[20] = molecular target: Gamma-secretase; assay: Modulation of gamma secretase in HEK293 NdeltaE cells assessed as inhibition of notch signalling; assay type: cell-based, Homo sapiens
[21] = Lipophilicity, log D of the compound by shake flask method; assay type: physicochemical; settings: octanol/water
[22] = molecular target: T2, Cytochrome P450 2C8 (Homo sapiens, UniProt P10632); assay: Inhibition of CYP2C8 (unknown origin); assay type: ADME
T2 sequence (P10632 whole entry): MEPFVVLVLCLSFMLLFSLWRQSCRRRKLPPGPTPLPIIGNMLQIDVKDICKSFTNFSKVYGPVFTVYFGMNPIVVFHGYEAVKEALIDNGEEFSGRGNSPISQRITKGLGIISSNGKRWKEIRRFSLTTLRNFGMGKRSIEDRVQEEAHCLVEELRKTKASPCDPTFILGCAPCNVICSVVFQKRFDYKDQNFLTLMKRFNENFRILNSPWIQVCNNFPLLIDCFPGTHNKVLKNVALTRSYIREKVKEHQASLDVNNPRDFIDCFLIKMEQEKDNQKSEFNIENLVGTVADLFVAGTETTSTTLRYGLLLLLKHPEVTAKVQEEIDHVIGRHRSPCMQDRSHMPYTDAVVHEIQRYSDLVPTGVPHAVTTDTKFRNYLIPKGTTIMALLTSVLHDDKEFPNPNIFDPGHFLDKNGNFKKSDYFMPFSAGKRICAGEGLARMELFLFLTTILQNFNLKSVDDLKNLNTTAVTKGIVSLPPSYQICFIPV

[23] = molecular target: T3, Cytochrome P450 1A2 (Homo sapiens, UniProt P05177); assay: Inhibition of CYP1A2 (unknown origin); assay type: ADME
T3 sequence (P05177 whole entry): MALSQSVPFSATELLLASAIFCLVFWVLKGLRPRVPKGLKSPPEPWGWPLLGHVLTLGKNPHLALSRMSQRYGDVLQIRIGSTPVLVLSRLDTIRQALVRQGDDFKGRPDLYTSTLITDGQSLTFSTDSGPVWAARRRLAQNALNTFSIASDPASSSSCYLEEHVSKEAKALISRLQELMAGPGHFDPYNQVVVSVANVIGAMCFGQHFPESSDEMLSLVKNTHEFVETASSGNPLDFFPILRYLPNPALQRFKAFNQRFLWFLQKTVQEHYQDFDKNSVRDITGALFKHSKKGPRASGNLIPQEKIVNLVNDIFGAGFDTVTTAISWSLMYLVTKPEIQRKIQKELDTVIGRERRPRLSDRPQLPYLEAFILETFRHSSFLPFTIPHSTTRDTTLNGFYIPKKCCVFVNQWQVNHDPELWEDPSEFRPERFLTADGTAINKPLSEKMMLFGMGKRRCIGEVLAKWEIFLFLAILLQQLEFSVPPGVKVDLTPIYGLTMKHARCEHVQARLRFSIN

[24] = Fraction unbound in rat brain; assay type: ADME, tissue-based
[25] = system: MDR1 (human); assay: Permeability from apical to basolateral side in MDCK cells expressing human MDR; assay type: ADME, cell-based, Canis lupus familiaris; settings: dog, read-out: permeability
[26] = Bioavailability in rat at 1 mg/kg, iv and 5 mg/kg, po; assay type: ADME, organism-based; settings: in vivo
[27] = molecular target: Cytochrome P450 2C9 (Homo sapiens, UniProt P11712); assay: Inhibition of CYP2C9 (unknown origin); assay type: ADME
[28] = Fraction unbound in rat plasma; assay type: ADME, cell-free
[29] = molecular target: Cytochrome P450 2C19 (Homo sapiens, UniProt P33261); assay: Inhibition of CYP2C19 (unknown origin); assay type: ADME
[30] = Drug uptake in rat brain at 5 mg/kg, po after 1 hr; assay type: ADME, organism-based; parameters: dose 5 mg/kg, route oral; settings: read-out: Drug uptake
[31] = Plasma concentration in rat at 5 mg/kg, po after 1 hr; assay type: ADME, organism-based; parameters: dose 5 mg/kg, route oral
[32] = Half life in human hepatocytes; assay type: ADME, cell-based, Hepatocyte

Cytochrome P450 2C9, sequence (P11712 whole entry): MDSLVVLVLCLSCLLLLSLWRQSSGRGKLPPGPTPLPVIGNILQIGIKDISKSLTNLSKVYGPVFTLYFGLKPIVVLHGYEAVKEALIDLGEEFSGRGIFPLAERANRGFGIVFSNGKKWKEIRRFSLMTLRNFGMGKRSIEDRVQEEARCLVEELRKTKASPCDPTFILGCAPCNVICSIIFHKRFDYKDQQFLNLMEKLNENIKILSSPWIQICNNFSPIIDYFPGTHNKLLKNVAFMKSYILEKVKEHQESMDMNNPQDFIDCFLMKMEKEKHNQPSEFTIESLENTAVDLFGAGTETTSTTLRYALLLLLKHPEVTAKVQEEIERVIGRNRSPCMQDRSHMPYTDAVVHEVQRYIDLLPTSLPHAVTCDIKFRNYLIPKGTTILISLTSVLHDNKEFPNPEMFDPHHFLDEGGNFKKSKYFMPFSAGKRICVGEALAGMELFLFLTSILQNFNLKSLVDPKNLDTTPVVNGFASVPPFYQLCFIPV
Cytochrome P450 3A4, sequence (P08684 whole entry): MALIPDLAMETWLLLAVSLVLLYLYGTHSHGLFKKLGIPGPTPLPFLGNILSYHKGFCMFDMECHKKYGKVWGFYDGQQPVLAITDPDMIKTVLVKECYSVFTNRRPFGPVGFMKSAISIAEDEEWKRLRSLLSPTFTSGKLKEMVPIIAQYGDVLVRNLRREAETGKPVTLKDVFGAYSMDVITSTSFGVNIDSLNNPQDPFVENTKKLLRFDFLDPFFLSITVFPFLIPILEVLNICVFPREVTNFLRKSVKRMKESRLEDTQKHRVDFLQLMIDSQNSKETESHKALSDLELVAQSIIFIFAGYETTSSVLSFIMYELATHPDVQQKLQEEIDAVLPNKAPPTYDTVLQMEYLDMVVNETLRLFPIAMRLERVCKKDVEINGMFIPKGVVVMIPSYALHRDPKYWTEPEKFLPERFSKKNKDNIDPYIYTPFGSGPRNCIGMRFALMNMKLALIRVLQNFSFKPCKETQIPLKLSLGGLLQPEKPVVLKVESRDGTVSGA
Cytochrome P450 2D6, sequence (P10635 whole entry): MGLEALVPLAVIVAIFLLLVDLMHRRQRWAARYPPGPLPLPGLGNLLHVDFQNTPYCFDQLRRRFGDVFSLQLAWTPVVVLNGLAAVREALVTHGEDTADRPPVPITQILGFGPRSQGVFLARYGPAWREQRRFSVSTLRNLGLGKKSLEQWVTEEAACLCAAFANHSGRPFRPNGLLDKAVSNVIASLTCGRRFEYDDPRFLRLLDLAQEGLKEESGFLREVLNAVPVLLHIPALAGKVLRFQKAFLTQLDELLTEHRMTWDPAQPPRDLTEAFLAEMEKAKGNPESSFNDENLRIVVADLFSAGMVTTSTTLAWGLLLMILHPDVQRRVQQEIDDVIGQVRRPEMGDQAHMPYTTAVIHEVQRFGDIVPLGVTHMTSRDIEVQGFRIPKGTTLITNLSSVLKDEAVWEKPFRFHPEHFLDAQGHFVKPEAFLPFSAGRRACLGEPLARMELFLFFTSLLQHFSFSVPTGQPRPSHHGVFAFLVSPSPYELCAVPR
Cytochrome P450 2C19, sequence (P33261 whole entry): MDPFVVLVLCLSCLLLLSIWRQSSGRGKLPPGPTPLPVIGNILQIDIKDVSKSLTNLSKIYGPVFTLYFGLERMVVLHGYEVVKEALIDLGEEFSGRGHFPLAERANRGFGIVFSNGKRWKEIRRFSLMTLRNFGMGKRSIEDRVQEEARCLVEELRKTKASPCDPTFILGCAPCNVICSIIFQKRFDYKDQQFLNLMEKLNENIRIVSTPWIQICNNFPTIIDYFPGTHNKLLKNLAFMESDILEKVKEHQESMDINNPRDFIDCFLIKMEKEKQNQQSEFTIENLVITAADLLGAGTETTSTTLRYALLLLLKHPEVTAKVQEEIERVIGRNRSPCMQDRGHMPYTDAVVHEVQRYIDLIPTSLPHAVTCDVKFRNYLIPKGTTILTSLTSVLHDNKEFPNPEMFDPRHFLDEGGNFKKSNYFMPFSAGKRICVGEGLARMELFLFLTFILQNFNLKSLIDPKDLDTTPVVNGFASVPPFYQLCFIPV

SMILES: C#CCCCOc1ccc(C(=O)c2cccc(OCCN3CCn4c(ccc(-n5cnc(C)c5)c4=O)C3=O)c2)cc1
IC50 [6]: 135 nM
Activity [7]: Active
Activity [8]: inactive
Activity [9]: Active
Activity [10]: inactive

SMILES: Cc1cn(-c2ccc3n(c2=O)CCN(CCOc2ccc(C(F)(F)F)cc2)C3=O)cn1
CLint scaled [1]: 40.3 mL/min/kg
CLint scaled [2]: < 9.7 mL/min/kg
IC50 [4]: 1270 nM
efflux ratio [5]: 1.5

SMILES: Cc1cn(-c2ccc3c(=O)n(Cc4cccc(C(F)(F)F)c4)ccc3c2O)cn1
CLint scaled [2]: 12.3 mL/min/kg
IC50 [4]: 920 nM
efflux ratio [5]: 1.1

SMILES: Cc1cn(-c2ccc3n(c2=O)CCN(Cc2cccc(C(F)(F)F)c2)C3=O)cn1
CLint scaled [1]: < 25.4 mL/min/kg
CLint scaled [2]: < 8 mL/min/kg
IC50 [4]: 1630 nM
efflux ratio [5]: 1.5

More lines, in order of falling IC50 [4], values ahead:

CLint scaled [1]: 79.4 mL/min/kg
CLint scaled [2]: < 8 mL/min/kg
IC50 [4]: 530 nM
efflux ratio [5]: 1.2
SMILES: Cc1cn(-c2ccc3n(c2=O)CCN(CCOc2cccc(C(F)(F)F)c2)C3=O)cn1

CLint scaled [1]: 482 mL/min/kg
CLint scaled [2]: 8.1 mL/min/kg
CLint scaled [3]: < 2.8 mL/min/kg
IC50 [4]: 410 nM
efflux ratio [5]: 1.7
SMILES: Cc1cn(-c2ccc3n(c2=O)CCN(CC2(c4ccc(Cl)cc4)CC2)C3=O)cn1

Papp A→B [13]: 10.4 ×10⁻⁶ cm/s
CLint scaled [2]: < 8 mL/min/kg
half-life [32]: 0.322 h
CLint scaled [3]: 90.5 mL/min/kg
IC50 [4]: 400 nM
efflux ratio [5]: 1.9
SMILES: Cc1cn(-c2ccc3c(c2O)CCN(Cc2cccc(C(F)(F)F)c2)C3=O)cn1

clearance [11]: 14.3 mL/min/kg
IC50 [12]: > 30000 nM
CLint scaled [1]: 44.1 mL/min/kg
Papp A→B [13]: 17.7 ×10⁻⁶ cm/s
half-life [14]: 2.09 h
Kp uu [15]: 0.43
CLint scaled [2]: < 8.8 mL/min/kg
solubility kinetic [16]: 177 µM (≈ 79.7 µg/mL)
Vd [17]: 1.91 L/kg
Kp at 1 h [18]: 0.74
IC50 [19]: > 30000 nM
IC50 [4]: 252 nM
IC50 [20]: > 50000 nM
logD [21]: 2.75
IC50 [22]: 19000 nM
IC50 [23]: > 30000 nM
fraction unbound [24]: 0.032
Papp A→B [25]: 13.1 ×10⁻⁶ cm/s
bioavailability [26]: 100%
IC50 [27]: > 30000 nM
fraction unbound [28]: 0.055
IC50 [29]: > 30000 nM
concentration at 1 h [30]: 718 ng/mL
efflux ratio [5]: 1.5
concentration at 1 h [31]: 964 ng/mL
SMILES: Cc1cn(-c2ccc3n(c2=O)CCN(CCOc2ccc(F)cc2C(F)(F)F)C3=O)cn1
